# Target: T1, active p38 alpha enzyme (Upstate Biotechnology) (Homo sapiens, UniProt Q16539)
# T1 construct: purchased Upstate Biotechnology
# Test: p38α biochemical assay (ATP turnover, luminescent detection, Cambrex PKlight)
# Conditions: p38α kinase; Table 1 Biological Activity
# Procedure, shortened: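 Active p38α phosphorylates MapkapK2 whole protein with 1.4 uM final ATP, 2 h at 30C, in Tris/MOPS buffer with MgCl2, CaCl2, EGTA, EDTA, glycerol, β-mercaptoethanol and 1 mg/ml BSA. Compounds pin-delivered from DMSO; total ATP turnover read by luminescence after PKlight addition.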
# T1 sequence (Q16539 whole entry): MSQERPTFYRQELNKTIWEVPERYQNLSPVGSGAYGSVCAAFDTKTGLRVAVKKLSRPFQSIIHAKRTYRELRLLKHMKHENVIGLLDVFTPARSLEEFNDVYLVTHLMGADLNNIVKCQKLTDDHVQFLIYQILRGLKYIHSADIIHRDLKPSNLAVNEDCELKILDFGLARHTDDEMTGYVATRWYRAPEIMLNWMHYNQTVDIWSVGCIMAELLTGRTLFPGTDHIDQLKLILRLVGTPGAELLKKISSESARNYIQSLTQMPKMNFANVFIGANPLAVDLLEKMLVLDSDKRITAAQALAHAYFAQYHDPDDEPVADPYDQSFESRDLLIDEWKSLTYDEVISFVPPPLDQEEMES
row,SMILES,IC50
1,CC(C)NC(=O)c1csc(-c2oc(CN3CCCCC3CCO)nc2-c2ccc(F)cc2)n1 (centres unmarked) [Example 1223],> 1000 nM
2,CC(C)NC(=O)c1csc(-c2oc(CN3CCc4ccccc4C3)nc2-c2ccc(F)cc2)n1 [Example 1224],> 1000 nM
3,CCN(Cc1ccccc1)Cc1nc(-c2ccc(F)cc2)c(-c2nc(C(=O)NC(C)C)cs2)o1 [Example 1225],> 1000 nM
4,CC(C)NC(=O)c1csc(-c2oc(CN(C)CCc3ccccc3)nc2-c2ccc(F)cc2)n1 [Example 1227],> 1000 nM
5,CC(C)NC(=O)c1csc(-c2oc(CN(C)CCc3ccccn3)nc2-c2ccc(F)cc2)n1 [Example 1228],> 1000 nM
6,CC(C)NC(=O)c1csc(-c2oc(CN3CCCC4CCCCC43)nc2-c2ccc(F)cc2)n1 (centres unmarked) [Example 1230],> 1000 nM
7,C=CCN(Cc1nc(-c2ccc(F)cc2)c(-c2nc(C(=O)NC(C)C)cs2)o1)C1CCCCC1 [Example 1231],> 1000 nM
8,COC(=O)C1CCN(Cc2nc(-c3ccc(F)cc3)c(-c3nc(C(=O)NC(C)C)cs3)o2)CC1 [Example 1232],> 1000 nM
9,CC(C)NC(=O)c1csc(-c2oc(CN(Cc3ccccc3)C(C)C)nc2-c2ccc(F)cc2)n1 [Example 1233],> 1000 nM
10,CC(C)NC(=O)c1csc(-c2oc(CN(CCO)Cc3ccccc3)nc2-c2ccc(F)cc2)n1 [Example 1234],> 1000 nM
11,CC(C)NC(=O)c1csc(-c2oc(CN(C)CC(O)c3ccccc3)nc2-c2ccc(F)cc2)n1 (centres unmarked) [Example 1235],> 1000 nM
12,CC(C)NC(=O)c1csc(-c2oc(CN3CCC(O)(O)CC3)nc2-c2ccc(F)cc2)n1 [Example 1236],> 1000 nM
13,CCOC(=O)C1CCN(Cc2nc(-c3ccc(F)cc3)c(-c3nc(C(=O)NC(C)C)cs3)o2)CC1 [Example 1237],> 1000 nM
14,CCOC(=O)C1CCCN(Cc2nc(-c3ccc(F)cc3)c(-c3nc(C(=O)NC(C)C)cs3)o2)C1 (centres unmarked) [Example 1238],> 1000 nM
15,CCOC(=O)N1CCN(Cc2nc(-c3ccc(F)cc3)c(-c3nc(C(=O)NC(C)C)cs3)o2)CC1 [Example 1239],> 1000 nM
16,CC(C)NC(=O)c1csc(-c2oc(CN(CCC#N)Cc3cccnc3)nc2-c2ccc(F)cc2)n1 [Example 1240],> 1000 nM
17,CC(C)NC(=O)c1csc(-c2oc(CN3CCN(c4ccccc4)CC3)nc2-c2ccc(F)cc2)n1 [Example 1241],> 1000 nM
18,CC(C)NC(=O)c1csc(-c2oc(CN3CCN(c4ccccn4)CC3)nc2-c2ccc(F)cc2)n1 [Example 1242],> 1000 nM
19,CCCCN(Cc1ccccc1)Cc1nc(-c2ccc(F)cc2)c(-c2nc(C(=O)NC(C)C)cs2)o1 [Example 1243],> 1000 nM
20,CC(C)NC(=O)c1csc(-c2oc(CN(CCO)[C@H](C)c3ccccc3)nc2-c2ccc(F)cc2)n1 [Example 1244],> 1000 nM

row,SMILES,IC50
1,CC(C)NC(=O)c1csc(-c2oc(CN(CCCO)Cc3ccccn3)nc2-c2ccc(F)cc2)n1 [Example 1245],> 1000 nM
2,CC(C)NC(=O)c1csc(-c2oc(CN(C)CC(O)c3ccc(O)cc3)nc2-c2ccc(F)cc2)n1 (centres unmarked) [Example 1246],> 1000 nM
3,CC(C)NC(=O)c1csc(-c2oc(CN3CCN(C4CCCCC4)CC3)nc2-c2ccc(F)cc2)n1 [Example 1247],> 1000 nM
4,CC(C)NC(=O)c1csc(-c2oc(CN3CCC(Cc4ccccc4)CC3)nc2-c2ccc(F)cc2)n1 [Example 1248],> 1000 nM
5,CC(C)NC(=O)c1csc(-c2oc(CN3CCN(Cc4ccccc4)CC3)nc2-c2ccc(F)cc2)n1 [Example 1249],> 1000 nM
6,CC(C)NC(=O)c1csc(-c2oc(CN3CCCN(Cc4ccccc4)CC3)nc2-c2ccc(F)cc2)n1 [Example 1250],> 1000 nM
7,CC(C)NC(=O)c1csc(-c2oc(CN3CCN(c4ccc(O)cc4)CC3)nc2-c2ccc(F)cc2)n1 [Example 1251],> 1000 nM
8,CC(C)NC(=O)c1csc(-c2oc(CN(CCN(C)C)Cc3ccccc3)nc2-c2ccc(F)cc2)n1 [Example 1252],> 1000 nM
9,CC(C)NC(=O)c1csc(-c2oc(CN3CCN(c4ccccc4F)CC3)nc2-c2ccc(F)cc2)n1 [Example 1253],> 1000 nM
10,CC(C)NC(=O)c1csc(-c2oc(CN3CCN(c4ccc(F)cc4)CC3)nc2-c2ccc(F)cc2)n1 [Example 1254],> 1000 nM
11,CC(C)NC(=O)c1csc(-c2oc(CN3CCN(CC4CCCCC4)CC3)nc2-c2ccc(F)cc2)n1 [Example 1255],> 1000 nM
12,CC(C)NC(=O)c1csc(-c2oc(CN(C)C[C@H](O)c3ccc(O)c(O)c3)nc2-c2ccc(F)cc2)n1 [Example 1256],> 1000 nM
13,CCOC(=O)CC1C(=O)NCCN1Cc1nc(-c2ccc(F)cc2)c(-c2nc(C(=O)NC(C)C)cs2)o1 (centres unmarked) [Example 1257],> 1000 nM
14,CC(C)NC(=O)c1csc(-c2oc(CN3CCN(C(=O)OC(C)(C)C)CC3)nc2-c2ccc(F)cc2)n1 [Example 1258],> 1000 nM
15,CC(C)NC(=O)c1csc(-c2oc(CN3CCC(NC(=O)OC(C)(C)C)C3)nc2-c2ccc(F)cc2)n1 (centres unmarked) [Example 1259],> 1000 nM
16,CC(C)NC(=O)c1csc(-c2oc(CN3CCN(c4ccccc4C#N)CC3)nc2-c2ccc(F)cc2)n1 [Example 1260],> 1000 nM
17,CC(C)NC(=O)c1csc(-c2oc(CN3CCN(c4ccc(C#N)cn4)CC3)nc2-c2ccc(F)cc2)n1 [Example 1261],> 1000 nM
18,Cc1cccc(N2CCN(Cc3nc(-c4ccc(F)cc4)c(-c4nc(C(=O)NC(C)C)cs4)o3)CC2)c1C [Example 1262],> 1000 nM
19,Cc1cccc(N2CCN(Cc3nc(-c4ccc(F)cc4)c(-c4nc(C(=O)NC(C)C)cs4)o3)CC2C)c1 (centres unmarked) [Example 1264],> 1000 nM

# Second part, the compound after the results:
row,IC50,SMILES
1,> 1000 nM,C#CCN(C)Cc1nc(-c2ccc(F)cc2)c(-c2nc(C(=O)NC(C)C)cs2)o1 [Example 1187]
2,> 1000 nM,CCN(CC)Cc1nc(-c2ccc(F)cc2)c(-c2nc(C(=O)NC(C)C)cs2)o1 [Example 1188]
3,> 1000 nM,CCCN(C)Cc1nc(-c2ccc(F)cc2)c(-c2nc(C(=O)NC(C)C)cs2)o1 [Example 1189]
4,> 1000 nM,CC(C)NC(=O)c1csc(-c2oc(CN(C)CCO)nc2-c2ccc(F)cc2)n1 [Example 1190]
5,> 1000 nM,CC(C)NC(=O)c1csc(-c2oc(CN(C)CCC#N)nc2-c2ccc(F)cc2)n1 [Example 1191]
6,> 1000 nM,CC(C)CN(C)Cc1nc(-c2ccc(F)cc2)c(-c2nc(C(=O)NC(C)C)cs2)o1 [Example 1192]
7,> 1000 nM,CCN(Cc1nc(-c2ccc(F)cc2)c(-c2nc(C(=O)NC(C)C)cs2)o1)C(C)C [Example 1193]
8,> 1000 nM,CCCCN(C)Cc1nc(-c2ccc(F)cc2)c(-c2nc(C(=O)NC(C)C)cs2)o1 [Example 1194]
9,> 1000 nM,CCN(CCO)Cc1nc(-c2ccc(F)cc2)c(-c2nc(C(=O)NC(C)C)cs2)o1 [Example 1195]
10,> 1000 nM,CC(C)NC(=O)c1csc(-c2oc(CN3CCSC3)nc2-c2ccc(F)cc2)n1 [Example 1196]
11,> 1000 nM,CC(C)NC(=O)c1csc(-c2oc(CN3CCCCC3C)nc2-c2ccc(F)cc2)n1 (centres unmarked) [Example 1197]
12,> 1000 nM,CC1CCN(Cc2nc(-c3ccc(F)cc3)c(-c3nc(C(=O)NC(C)C)cs3)o2)CC1 [Example 1198]
13,> 1000 nM,CC(C)NC(=O)c1csc(-c2oc(CN3CCN(C)CC3)nc2-c2ccc(F)cc2)n1 [Example 1199]
14,> 1000 nM,CC(C)NC(=O)c1csc(-c2oc(CN3CCCC3CO)nc2-c2ccc(F)cc2)n1 (centres unmarked) [Example 1200]
15,> 1000 nM,CC(C)NC(=O)c1csc(-c2oc(CN3CCC[C@@H]3CO)nc2-c2ccc(F)cc2)n1 [Example 1201]
16,> 1000 nM,CCCCN(CC)Cc1nc(-c2ccc(F)cc2)c(-c2nc(C(=O)NC(C)C)cs2)o1 [Example 1202]
17,> 1000 nM,CCCN(CCC)Cc1nc(-c2ccc(F)cc2)c(-c2nc(C(=O)NC(C)C)cs2)o1 [Example 1203]
18,> 1000 nM,CC(C)NC(=O)c1csc(-c2oc(CN3CCSCC3)nc2-c2ccc(F)cc2)n1 [Example 1204]

row,IC50,SMILES
1,> 1000 nM,CC(C)NC(=O)c1csc(-c2oc(CN(CCO)CCO)nc2-c2ccc(F)cc2)n1 [Example 1205]
2,> 1000 nM,CC1CC(C)CN(Cc2nc(-c3ccc(F)cc3)c(-c3nc(C(=O)NC(C)C)cs3)o2)C1 (centres unmarked) [Example 1206]
3,> 1000 nM,CC(C)NC(=O)c1csc(-c2oc(CN(C)C3CCCCC3)nc2-c2ccc(F)cc2)n1 [Example 1207]
4,> 1000 nM,CC(C)NC(=O)c1csc(-c2oc(CN3C(C)CCCC3C)nc2-c2ccc(F)cc2)n1 (centres unmarked) [Example 1208]
5,> 1000 nM,CC(C)NC(=O)c1csc(-c2oc(CN3CCC(N(C)C)C3)nc2-c2ccc(F)cc2)n1 (centres unmarked) [Example 1209]
6,> 1000 nM,CC(C)NC(=O)c1csc(-c2oc(CN3C[C@@H](C)N[C@@H](C)C3)nc2-c2ccc(F)cc2)n1 [Example 1210]
7,> 1000 nM,CC(C)NC(=O)c1csc(-c2oc(CN3CCCC(CO)C3)nc2-c2ccc(F)cc2)n1 (centres unmarked) [Example 1211]
8,> 1000 nM,COC[C@@H]1CCCN1Cc1nc(-c2ccc(F)cc2)c(-c2nc(C(=O)NC(C)C)cs2)o1 [Example 1212]
9,> 1000 nM,CC(C)NC(=O)c1csc(-c2oc(CN3CC(C)OC(C)C3)nc2-c2ccc(F)cc2)n1 (centres unmarked) [Example 1213]
10,> 1000 nM,CC(C)NC(=O)c1csc(-c2oc(CN3CCCCC3CO)nc2-c2ccc(F)cc2)n1 (centres unmarked) [Example 1214]
11,> 1000 nM,CCN(CCCCO)Cc1nc(-c2ccc(F)cc2)c(-c2nc(C(=O)NC(C)C)cs2)o1 [Example 1215]
12,> 1000 nM,CC(C)NC(=O)c1csc(-c2oc(CN3Cc4ccccc4C3)nc2-c2ccc(F)cc2)n1 [Example 1216]
13,> 1000 nM,CC(C)NC(=O)c1csc(-c2oc(CN(C)Cc3ccccc3)nc2-c2ccc(F)cc2)n1 [Example 1217]
14,> 1000 nM,CCN(Cc1nc(-c2ccc(F)cc2)c(-c2nc(C(=O)NC(C)C)cs2)o1)C1CCCCC1 [Example 1218]
15,> 1000 nM,CC(C)NC(=O)c1csc(-c2oc(CN3CCC(C(N)=O)CC3)nc2-c2ccc(F)cc2)n1 [Example 1219]
16,> 1000 nM,CC(=O)N[C@H]1CCN(Cc2nc(-c3ccc(F)cc3)c(-c3nc(C(=O)NC(C)C)cs3)o2)C1 [Example 1220]
17,> 1000 nM,CC(C)NC(=O)c1csc(-c2oc(CN3CCCC(C(N)=O)C3)nc2-c2ccc(F)cc2)n1 (centres unmarked) [Example 1222]
